Experimental findings from EP2913057B1, “Cancer peptide therapeutics” (Indiana University Research and Technology Corporation, priority 2008, dated 2010) are described below.

“Also recorded” adds a separate entry of the source. Residues, ends and D or L forms follow the SMILES beside them.

Data set [1] has as its system U937 cells. Briefly: Cytotoxicity (apoptosis / cell death) of R9-linked caPCNA peptides by flow cytometry. Type of data set: cell-based. The settings on record: 24 hours; for % cancer cell death: 30mM of peptide, flow cytometry. Here is the method: First, it was tested whether or not the R9 sequence alone had any cytotoxic effect in U937 cells. The U937 cells were treated with up to 100mM of the R9 sequence for 24 hours.
Once it was established that the R9 sequence promoted cellular uptake of the peptide, increasing amounts of R9-caPep were added to U937 cells to determine if the peptide's uptake would have any cytotoxic effect.
To verify that the cytotoxicity of the R9-caPep was due to the PCNA peptide sequence itself, a scrambled peptide using the same eight amino acids, R9-Scrambled, was prepared (Table 3).
The cancer associated epitope of PCNA is also part of the flexible IDCL region of PCNA. This region of PCNA is considered to have a disordered structure. Disordered regions in proteins are usually associated with protein-to-protein interaction sites. […] To determine which amino acids in the R9-caPep sequence are necessary for binding of the peptide to these proteins, peptide constructs were generated that mutated each aminoacid individually to an alanine (Table 3). Each alanine mutant peptide of caPCNA was used to treat U937 cells for 24 hours. An amino acid that is important to protein binding would presumably show decreased cell cytotoxicity when it is substituted with an alanine. Those amino acids which are not critical for binding could be anticipated to show a cytotoxic level similar to that of the unsubstituted peptide. For a comparison of the potential cytotoxic effect of each of the alanine substituted R9-linked caPeptides, U937 cells were treated with 30mM of peptide. […] It was observed that peptides containing an alanine substituted at position aa126 or aa133 show little cytotoxic activity and therefore were likely important for the peptide's activity.
On the technique in general: In flow cytometry, cells or beads pass a laser one at a time.

The next data set concerns MCF 7 (breast cancer). Briefly: Cytotoxic effect in malignant breast cells, cell death by flow cytometry. Further details: dose or concentration left out as unconfirmed. Type of data set: cell-based. The settings on record: 48 hours. Here is the method: The R9-caPeptide was evaluated for cytotoxic effects in non-malignant (MCF 10A) and malignant (MCF 7) breast cells (Table 6). The cells were treated with 50 mM R9-caPeptide for 48 hours and the extent of cell death was evaluated by flow cytometry. […] The significant level of cytotoxicity in breast cancer cells is likely due to enhanced binding interaction of caPeptide with specific DNA repair proteins in these cells, as indicated for example by the observed preferential binding of caPCNA for XPG protein, leading to an inhibition of DNA repair in these cells, and ultimately cell death.

Data set [2] has as its system U937 cells. Briefly: cells. The settings on record: Homo sapiens, U-937, read-out: cell death.

With “RRRRRRRRRCCAGIPEQEY [A1-sub. peptide, R9-linked caPCNA peptide, alanine at aa126]”, the “% cancer cell death” value in the data set with U937 cells [1] turned out to be 8±9%.

Consider `CC[C@H](C)[C@H](NC(=O)CNC(=O)[C@H](CC(C)C)NC(=O)[C@H](CS)NC(=O)[C@H](CS)NC(=O)[C@@H](CCCNC(=N)N)NC(=O)[C@@H](CCCNC(=N)N)NC(=O)[C@@H](CCCNC(=N)N)NC(=O)[C@@H](CCCNC(=N)N)NC(=O)[C@@H](CCCNC(=N)N)NC(=O)[C@@H](CCCNC(=N)N)NC(=O)[C@@H](CCCNC(=N)N)NC(=O)[C@@H](CCCNC(=N)N)NC(=O)[C@H](N)CCCNC(=N)N)C(=O)N1CCC[C@H]1C(=O)N[C@@H](CCC(=O)O)C(=O)N[C@@H](CCC(N)=O)C(=O)N[C@@H](CCC(=O)O)C(=O)N[C@@H](Cc1ccc(O)cc1)C(=O)O` [R9-caPep], for which the “cytotoxicity for malignant breast cells (MCF7) relative to non-malignant breast cells (MCF10A)” value with MCF 7 (breast cancer) is “approximately five times more cytotoxic”.

Consider “RRRRRRRRRCCLGIPEQEA [A8-sub. peptide, R9-linked caPCNA peptide, alanine at aa133]”, for which, in the data set on U937 cells [1], the “% cancer cell death” value amounted to 7±6%.

As to “RRRRRRRRRCCLAIPEQEY [A2-sub. peptide, R9-linked caPCNA peptide, alanine at aa127]”, the “% cancer cell death” value with U937 cells [1] is 47±13%.

Turning to “RRRRRRRRRCCLGIPAQEY [A5-sub. peptide, R9-linked caPCNA peptide, alanine at aa130]”, in the data set on U937 cells [1], the “% cancer cell death” value is given as 45±14%.

Take “RRRRRRRRRCCLGIPEQAY [A7-sub. peptide, R9-linked caPCNA peptide, alanine at aa132]”: the “% cancer cell death” value in the data set on U937 cells [1] came to 88±4%.

For the compound “RRRRRRRRRCCLGAPEQEY [A3-sub. peptide, R9-linked caPCNA peptide, alanine at aa128]”, the “% cancer cell death” value with U937 cells [1] is 21±12%.

“RRRRRRRRRCCLGIPEAEY [A6-sub. peptide, R9-linked caPCNA peptide, alanine at aa131]”: in the data set with U937 cells [1], the “% cancer cell death” value amounted to 93±7%.

Take `CC[C@H](C)[C@H](NC(=O)CNC(=O)[C@@H](N)CC(C)C)C(=O)N1CCC[C@H]1C(=O)N[C@@H](CCC(=O)O)C(=O)N[C@@H](CCC(N)=O)C(=O)N[C@@H](CCC(=O)O)C(=O)N[C@@H](Cc1ccc(O)cc1)C(=O)O` [caPeptide] (H-LGIPEQEY-OH): the “cytotoxic activity (apoptosis)” value with U937 cells [1] (up to 200mM of caPeptide) is “did not have any cytotoxic activity; also recorded: no increase in apoptosis was detected”.

With RRRRRRRRR [R9, reference compound], the “cytotoxic effect (apoptosis)” value in the data set on U937 cells [1] (up to 100mM of the R9 sequence) was “did not promote apoptosis; also recorded: did not cause an increase apoptosis”.

Take `COc1cccc2c1C(=O)c1c(O)c3c(c(O)c1C2=O)C[C@@](O)(C(=O)CO)C[C@@H]3O[C@H]1C[C@H](N)[C@H](O)[C@H](C)O1` [doxorubicin]: the cytotoxicity at 0.1 µM in the data set on U937 cells [2] came out at 30%.

Take “RRRRRRRRRCCLGIAEQEY [A4-sub. peptide, R9-linked caPCNA peptide, alanine at aa129]”: the “% cancer cell death” value in the data set on U937 cells [1] was 80±7%.
